Measured values as given in a melting point compilation (Tetko et al.).

Row | Compound | melting point [°C]
1 | Fc1cccc2cc(I)cnc12 | 77 to 79
2 | COc1ccccc1C(N)=S | 113 to 115
3 | Cc1ccc(NC(=O)CO)c(Cl)c1 | 90 to 92
4 | O=c1[nH]c2ccccc2n2cncc12 | 349 to 351
5 | O=Cc1cccnc1Cl | 50 to 54
6 | Cc1cc(C)n(-c2ccc(CO)cc2)n1 | < 17
7 | CC1CN(C(=O)CCl)CC(C)O1 (centres undefined) | 61 to 63
8 | CCc1noc(-c2ccc(C)c(N)c2)n1 | 77 to 79
9 | O=S1(=O)CCCC(O)C1 (centres undefined) | 99 to 101
10 | ON=C1CCN(Cc2ccccc2)CC1 | 126 to 128
11 | CC(=O)c1cc([N+](=O)[O-])ccc1N | 144 to 146
12 | Nc1noc(-c2ccoc2)n1 | 179 to 181
13 | O=C(CCOc1ccccc1)NO | 138 to 140
14 | NCC(O)COc1ccc(I)cc1 (centres undefined) | 129 to 131
15 | CN(C)c1ncnc(Cl)c1CCl | 64 to 66
16 | CC(Cl)C(=O)N(C)C1CCS(=O)(=O)C1 (centres undefined) | 106 to 108
17 | Cc1cc(C=O)c(C)n1CC#N | 122 to 124
18 | Clc1cc(N2CCSCC2)ncn1 | 134 to 136
19 | N#Cc1ccc(C=C2CCn3c2nc2cc(C(=O)O)ccc2c3=O)cc1 | 300 to 302
20 | Clc1cc(C2=NCCN2)ccn1 | 165 to 167
21 | O=C(O)Cn1c(COc2ccccc2)nc2ccccc21 | 199 to 201
22 | c1n[nH]cc1C1CCNCC1 | 149 to 151
23 | O=C(O)c1cnc(-c2ccc(Cl)s2)s1 | 235 to 237
24 | O=C(O)c1sccc1S(=O)(=O)N1CCCCC1 | 111 to 113
25 | Cn1c(=O)cc(N)n(Cc2ccccc2)c1=O | 95 to 99
26 | Cc1cc(C)cc(-c2cc(N)[nH]n2)c1 | 75 to 77

Row | Compound | melting point [°C]
27 | Cc1ccc(S(=O)(=O)OC(c2nc(C)cs2)C(F)(F)F)cc1 (centres undefined) | 105 to 107
28 | CC(C)(C)OC(=O)N1CC2NCCOC2C1 (centres undefined) | 54 to 56
29 | Cc1nc2c(c(C)c1CC(=O)O)c(=O)[nH]n2C | 239 to 241
30 | Nc1ccc(C(=O)Nc2cccnc2)cc1 | 212 to 214
31 | NCc1ccc(N2CC=CC2)cc1 | 74 to 76
32 | C#Cc1cnc2ccccc2n1 | 99 to 101
33 | CN1CCC(Nc2ccccc2N)CC1 | 86 to 88
34 | Nc1cccc(C(=O)N2CCOCC2)c1 | 82 to 84
35 | O=C(O)CNc1ccc(C(F)(F)F)cn1 | 134 to 136
36 | Cc1ccc(NS(=O)(=O)c2ccc(Cl)c([N+](=O)[O-])c2)c(C)c1 | 99 to 101
37 | CCOC(=O)c1c(N)sc2c1CC(C)(C)NC2(C)C | 95 to 97
38 | Cn1nc(I)c2ncccc21 | 186 to 188
39 | Cc1ccccc1-c1noc(S)n1 | 150 to 152
40 | NCc1cccc(NC(=O)Cn2cccn2)c1 | 113 to 115
41 | O=C(O)c1ccccc1OCc1cccc(Br)c1 | 108 to 110
42 | O=C(CCl)NC(=O)NC1CCS(=O)(=O)C1 (centres undefined) | 173 to 175
43 | CN1C(=C(C#N)C(=O)CCl)Nc2ccccc21 | 244 to 246
44 | O=C(c1ccc(Cl)nc1)N1CCc2ccccc21 | 132 to 134
45 | O=C(CCl)NCc1cccc(C(=O)NC2CC2)c1 | 137 to 139
46 | OC1(c2ccccc2)CCC1 | 39 to 41
47 | C1=C(c2c[nH]c3ncccc23)CCNC1 | 181 to 183
48 | O=C(O)C=C1CCCCC1 | 90 to 92
49 | Nc1ccccc1NS(=O)(=O)c1ccc(F)cc1 | 122 to 124
50 | Nc1ccc(S(N)(=O)=O)cc1Br | 153 to 155
51 | CC(C)NS(=O)(=O)c1ccc(N)cc1 | 112 to 114

Other lines, results leading:

Row | melting point [°C] | Compound
52 | 157 to 159 | Cc1nn(CC(F)(F)F)c(C)c1CC(=O)O
53 | 231 to 233 | Cc1ccc(S(=O)(=O)Nc2ccccc2C(=O)O)cc1
54 | 187 to 189 | CC(C1CC1)N(C)C(=O)c1ccc[nH]c1=O (centres undefined)
55 | 59 to 61 | Nc1ccnn1Cc1ccc(F)cc1
56 | 224 to 226 | Cc1cc(C(=O)O)c2c(CC(C)(C)C)noc2n1
57 | 211 to 213 | O=C(O)C1CCCN1c1ncnc2sccc12 (centres undefined)
58 | 43 to 45 | N#CC1(N2C(=O)C=CC2=O)CCCC1
59 | 103 to 105 | CS(=O)(=O)CC(O)c1ccccc1 (centres undefined)
60 | 106 to 108 | CC(=O)c1ccc(OCc2nccn2C)cc1
61 | 134 to 136 | Nc1ccc(C(=O)Nc2ccccc2)cc1
62 | 223 to 225 | O=C(O)c1ccc(F)c(S(=O)(=O)N2CCCC2)c1
63 | 70 to 72 | Fc1cccc(NC2CCOCC2)c1
64 | 70 to 72 | C#CCOc1ccccc1C=O
65 | 155 to 157 | Cc1ccc(O)c(C(=O)N2CCSCC2)c1
66 | 176 to 178 | O=C(O)Cc1cc(Cl)c2c(c1)OCCO2
67 | 72 to 74 | Cc1ccc(C2CCCCC2O)cc1 (centres undefined)
68 | 258 to 260 | NC(=S)c1ccnc(-n2cncn2)c1
69 | 139 to 141 | Nc1cc(N2CCCC2=O)ccc1Cl
70 | 135 to 137 | Cc1cc(C)cc(C=CC(=O)O)c1
71 | 99 to 101 | NNC(=O)CNc1ccccc1F
72 | 58 to 60 | COc1ccc(C(N)c2ccccc2OC)cc1 (centres undefined)
73 | 61 to 63 | O=Cc1ccc(OCCBr)c(Cl)c1
74 | 131 to 133 | O=C(O)Cc1ccc(S(=O)(=O)Cl)cc1
75 | 194 to 196 | Cc1cccc(-n2c(C)cc(C(=O)O)c2C)c1
76 | 63 to 65 | CCCc1nnn[nH]1
77 | 51 to 53 | Cc1cs/c(=N\c2ccccc2)n1C1CCCC1
78 | 80 to 82 | COC(=O)C(O)c1cc(Cl)cc(Cl)c1 (centres undefined)

Row | melting point [°C] | Compound
79 | 110 to 112 | COC(=O)c1cc(S(=O)(=O)Cl)c(Cl)cc1Cl
80 | 152 to 154 | CCOC(=O)C1=C(CC)Nc2ccccc2N=C1N
81 | 59 to 61 | CCCOc1ccc(CC(=O)O)cc1OCCC
82 | 275 to 277 | COC(=O)c1ccc2c(c1)S(=O)(=O)N=C(C)N2
83 | 279 to 281 | O=C(O)c1ccc(=O)n(-c2cccc(Br)c2)c1
84 | 195 to 197 | CCc1ccc(N(C(C)=O)c2nc(CCl)cs2)cc1
85 | 143 to 145 | CNC(=O)COc1ccc(CC(=O)O)cc1
86 | 214 to 216 | O=C(O)C(c1ccc(Br)cc1)N1CCCC1 (centres undefined)
87 | 79 to 81 | COC(=O)c1cnn2ccccc12
88 | 95 to 97 | O=S(=O)(NCC1CC1)c1ccc(Cl)nc1
89 | 117 to 119 | Cc1c(N)cccc1S(C)(=O)=O
90 | 148 to 150 | O=C(CCl)NC(=O)NCc1cccs1
91 | 148 to 150 | CSCC[C@H](N)C(=O)NO
92 | 64 to 66 | Fc1ccccc1-c1nc(CCl)cs1
93 | 67 to 69 | CC(=O)c1nc2ccccc2n1C
94 | 126 to 128 | COC(=O)c1cc(NC(=O)C(C)Cl)cc(C(=O)OC)c1 (centres undefined)
95 | 187 to 189 | Cc1nc2nnnn2c(C)c1CCC(=O)O
96 | 174 to 176 | CC(C)(C)n1ccnc1SCC(=O)O
97 | 146 to 148 | CC(Cl)C(=O)Nc1cccc2ccccc12 (centres undefined)
98 | 163 to 165 | N#Cc1c(OCCO)n[nH]c1N
99 | 186 to 188 | Oc1ccc(-c2nc3ccccc3s2)cc1Cl
100 | 144 to 146 | CC(=O)Nc1cccc2c1CCCN2
101 | 172 to 174 | O=C(O)C1CC(=O)N(c2ccc3c(c2)OCO3)C1 (centres undefined)
102 | 51 to 55 | COc1ccc(Cl)cc1CC#N
103 | 71 to 73 | Cc1cccc2[nH]c(CO)cc12
104 | 104 to 106 | CN(C)c1ccc(C=O)cc1[N+](=O)[O-]
